Values joined by “and” are separate entries in the source; they are usually repeats but may differ in a detail not shown here. Identical values can stand only once. “Also recorded” adds a separate entry of the source.
Assays:
hA2AAR = molecular target: hA2AAR; design: method as in ChEMBL database; details: ligands with < 20 HA; ref ChEMBL database; cited from earlier work
hA1AR [1] = test: Ki values of known ligands downloaded from the ChEMBL database; type: binding, human; details: from ChEMBL Ki values hA1AR and hA2AAR
Excerpt: Table S5. Highest affinity human A1AR ligands (with < 20 HA) in the ChEMBL database compared to compound 22.a […]
a Known A1AR and A2AAR ligands with determined Ki values were downloaded from the ChEMBL database.
Compounds with motifs found in pan-assay interference compounds16 were excluded using OpenEye Toolkits 2020.2.0 OpenEye Scientific Software, Santa Fe, NM. http://www.eyesopen.com.

hA1AR [2] = molecular target: hA1AR; design: method as in ChEMBL database; details: ligands with < 20 HA; ref ChEMBL database; cited from earlier work
human A1AR [3] = molecular target: T1, human A1AR (Homo sapiens, UniProt P30542); test: cAMP functional assay; type: cell-based; details: HEK293 cells, intracellular cAMP, n=3
T1 construct: expressed in transfected cells; host or cells: HEK293 (membrane preparations)
T1 sequence (P30542 1-326): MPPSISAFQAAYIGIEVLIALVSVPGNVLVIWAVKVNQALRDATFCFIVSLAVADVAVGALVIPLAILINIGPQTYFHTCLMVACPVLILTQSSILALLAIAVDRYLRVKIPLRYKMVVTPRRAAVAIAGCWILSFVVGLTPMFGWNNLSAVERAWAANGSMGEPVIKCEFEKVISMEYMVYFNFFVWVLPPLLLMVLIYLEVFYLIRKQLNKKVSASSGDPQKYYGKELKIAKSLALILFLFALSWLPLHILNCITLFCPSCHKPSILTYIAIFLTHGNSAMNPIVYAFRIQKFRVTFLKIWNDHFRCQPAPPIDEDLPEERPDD
Description: (§1) Functional assays measuring intracellular concentrations of cAMP were performed at the human A1AR and A2AAR to determine the efficacy of compounds 22 and 26. […]
cAMP assay. HEK293 cells were grown in DMEM supplemented with 10% fetal bovine serum, 100 Units/ml penicillin, 100 µg/ml streptomycin, and 2 µmol/ml glutamine. After 24 hours, cells were treated with assay buffer containing rolipram (10 µM), PSB603 (1 µM) and adenosine deaminase (3 units/ml) for 30 min followed by the addition of antagonists for 20 min and subsequent addition of agonists and incubated for another 20 min. For the A1AR assay, after incubation with agonist for 20 min, forskolin (10 µM) was added and incubated for an additional 15 min. The reaction was terminated upon removal of the supernatant, and addition of 100 µl Tween-20 (0.3%). Intracellular cAMP levels […]
(§2) were measured with an ALPHAScreen cAMP assay kit following the instructions from the manufacturer (PerkinElmer).

human A2AAR [4] = molecular target: T2, human A2AAR (Homo sapiens, UniProt P29274); test: Radioligand binding assay, displacement of [3H]ZM241385; details: for Free energy of binding (ΔG) A2AAR: calculated from experimental binding affinities; for ΔΔG Experimental A2AAR: based on Table S3
T2 construct: expressed in transfected cells; host or cells: HEK293 (membrane preparations)
T2 sequence (P29274 whole entry): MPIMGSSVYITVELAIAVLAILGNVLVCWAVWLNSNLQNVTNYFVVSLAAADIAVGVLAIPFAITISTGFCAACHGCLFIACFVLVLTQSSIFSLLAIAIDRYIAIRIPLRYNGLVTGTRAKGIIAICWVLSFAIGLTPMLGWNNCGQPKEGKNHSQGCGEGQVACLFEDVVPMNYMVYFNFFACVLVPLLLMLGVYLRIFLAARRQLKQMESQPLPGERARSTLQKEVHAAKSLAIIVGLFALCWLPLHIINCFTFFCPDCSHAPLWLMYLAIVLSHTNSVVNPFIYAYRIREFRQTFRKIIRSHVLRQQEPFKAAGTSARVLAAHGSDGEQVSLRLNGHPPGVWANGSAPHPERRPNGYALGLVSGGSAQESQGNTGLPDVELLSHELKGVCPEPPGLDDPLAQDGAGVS
Description: (§3) Radioligand binding assays. HEK293 cells expressing the human A1- or A2AARs were cultured in DMEM supplemented with 10% fetal bovine serum, 100 Units/ml penicillin, 100 µg/ml streptomycin, and 2 µmol/ml glutamine. Cells were detached from plates by scraping into cold PBS and centrifuged at 250 g for 5 min. The pellets were resuspended in ice-cold Tris HCl buffer (50 mM, pH 7.4) and then homogenized. After homogenization and suspension, cells were centrifuged at 1000 g for 10 min, and the pellet was discarded.
(§4) The suspension was then re-centrifuged at 20,000 g for 60 min at 4 °C. The pellets were resuspended in buffer containing 3 Units/ml adenosine deaminase and incubated at 37°C for 30 min. The aliquots of membrane preparations were stored at −80°C until the binding experiments. For displacement binding assays, membrane preparations (20 µg proteins/tube) were incubated at 25°C for 60 min with a final concentration of [3H]DPCPX (0.5 nM) and [3H]ZM241385 (1.0 nM) for A1- and A2AARs, respectively, in a mixture containing 50 µL of increasing concentrations of a test ligand in a total assay volume of 200 µL of 50 mM Tris HCl, pH 7.4, containing 10 mM MgCl2. Nonspecific binding was determined using 100 µM of XAC. The reaction was terminated by filtration with GF/B filters using a Brandel 24-channel harvester. Filters were placed in scintillation vials containing 5 ml of Hydrofluor scintillation buffer and counted using a PerkinElmer Tricarb 2810TR liquid scintillation counter. […]
(§5) Table S1. Binding affinities of compounds 1-10 based on displacement of [3H]DPCPX and [3H]ZM241385 at the A1AR and A2AAR, respectively.
(§6) Compound Substituent A1AR A2AAR index […]
(§7) a Ki values are expressed as means ± SEM from (2-4) independent experiments. b Free energy of binding (ΔG) calculated from experimental binding affinities (kcal/mol) / Number of heavy atoms (HA). The ligand efficiency (LE) = −ΔG/HA. c Values from Matricon et al.8
(§8) Table S3. Binding affinities of compounds 11-26 based on displacement of [3H]DPCPX and […]
(§9) a K values are expressed as means ± SEM from (2-4) independent experiments.
(§10) Free energy of binding (ΔG) calculated from experimental binding affinities (kcal/mol) / Number of heavy

human A1AR [5] = test: Radioligand binding assay, displacement of [3H]DPCPX; details: A1AR versus A2AAR; for A1AR selectivity index: from Ki values; for selectivity for the A1AR: Fig. 1
Description: as §3, §4, §5, §6, §7, §8, §9, §10

human A1AR [6] = molecular target: T1, human A1AR; test: as above; details: for Free energy of binding (ΔG) A1AR: calculated from experimental binding affinities; for ΔΔG Experimental A1AR: based on Table S3
Description: as §3, §4, §5, §6, §7, §8, §9, §10

human A2AAR [7] = molecular target: T2, human A2AAR; test: cAMP functional assay; type: cell-based; details: HEK293 cells, intracellular cAMP, n=3
Description: as §1
cAMP assay. HEK293 cells were grown in DMEM supplemented with 10% fetal bovine serum, 100 Units/ml penicillin, 100 µg/ml streptomycin, and 2 µmol/ml glutamine. After 24 hours, cells were treated with assay buffer containing rolipram (10 µM), PSB603 (1 […]
The reaction was terminated upon removal of the supernatant, and addition of 100 µl Tween-20 (0.3%). Intracellular cAMP levels […]
as §2

[8] = displacement of [3H]ZM241385, means ± SEM from 2-4 independent experiments
[9] = radioligand binding, Fig. 1, Table S5

Structure (SMILES) | Ki (hA2AAR) | A1AR selectivity (hA1AR [1]) | Ki (hA1AR [2]) | Free energy of binding (ΔG) A2AAR (human A2AAR [4]) | A1AR selectivity index (human A1AR [5]) | Free energy of binding (ΔG) A1AR (human A1AR [6]) | further results
Cn1ncc2nc(N)n3nc(-c4ccco4)nc3c21 [CHEMBL1935752] | 3.6 nM | 0.4 | 10 nM |  |  |  | 
COc1cccc2sc(NC(=O)c3ccccc3)nc12 [Compound 26] |  |  |  | -9.6 kcal/mol | 0.1 | -8.1 kcal/mol | efficacy in cAMP assay at A1AR (human A1AR [3]): antagonists; also recorded: Antagonism; A2AAR selectivity (human A2AAR [4]; A2AAR versus A1AR): 13 fold; Ki (human A2AAR [4]; radioligand binding, Table S5): 106 nM; ΔΔG Experimental A2AAR (human A2AAR [4]; reference compound 10): –0.8 ± 0.1 kcal/mol; Ki (human A1AR [6]; displacement of [3H]DPCPX, means ± SEM from 2-4 independent experiments): 1330 nM and 1300 nM; ΔΔG Experimental A1AR (human A1AR [6]; reference compound 10): 0.4 ± 0.3 kcal/mol; efficacy in cAMP assay at A2AAR (human A2AAR [7]): antagonists; also recorded: Antagonism
Cc1nc(N)c2nc(-n3nccn3)n(C)c2n1 [CHEMBL194290] | 70.4 nM | 6.8 | 10.4 nM |  |  |  | 
Nc1nc2ccccc2n2nc(-c3ccco3)nc12 [CHEMBL261345] | 11.2 nM | 2.0 | 5.6 nM |  |  |  | 
Cn1c(-n2nccn2)nc2c(N)ncnc21 [CHEMBL194728] | 46.3 nM | 115.7 | 0.4 nM |  |  |  | 
CC1(C(=O)Nc2nc3cc(Br)ccc3s2)CCCC1 [Compound 22] |  |  |  | -8.8 kcal/mol | 38.4 | -11.0 kcal/mol | efficacy in cAMP assay at A1AR (human A1AR [3]): antagonists; also recorded: Antagonism; Ki (human A2AAR [4]; [8]): 384 ± 82 nM; ΔΔG Experimental A2AAR (human A2AAR [4]; reference compound 9): –0.8 ± 0.1 kcal/mol; selectivity for the A1AR (human A1AR [5]): 38 fold; improvement of A1AR affinity (human A1AR [6]; compared to compound 1): > 1000 fold; Ki (human A1AR [6]; [9]): 10 nM; ΔΔG Experimental A1AR (human A1AR [6]; reference compound 9): –2.4 ± 0.1 kcal/mol; efficacy in cAMP assay at A2AAR (human A2AAR [7]): antagonists; also recorded: Antagonism
Oc1nc2ccccc2n2nc(-c3cccs3)nc12 [CHEMBL328437] |  |  | 2 nM |  |  |  | 
CC(C)(C)C(=O)Nc1nc2cc(Br)ccc2s1 [Compound 15] |  |  |  | -8.4 kcal/mol | 18.7 | -10.2 kcal/mol | Ki (human A2AAR [4]; [8]): 746 ± 149 nM; ΔΔG Experimental A2AAR (human A2AAR [4]; reference compound 5): –0.4 ± 0.2 kcal/mol; selectivity for the A1AR (human A1AR [5]): 19 fold; ligand efficiency (LE, binding free energy per heavy atom) (human A1AR [6]; A1AR): 0.60 kcal mol^−1 HA^−1; Ki (human A1AR [6]; [9]): 40 nM; ΔΔG Experimental A1AR (human A1AR [6]; reference compound 5): –1.2 ± 0.2 kcal/mol
